The target of test [1] is T1, S. aureus Uridine-diphosphate-N-acetvimuramoyl: L-alanine lipase, MurC (Staphylococcus aureus, UniProt Q2FXJ0).
T1 sequence (Q2FXJ0 1-437): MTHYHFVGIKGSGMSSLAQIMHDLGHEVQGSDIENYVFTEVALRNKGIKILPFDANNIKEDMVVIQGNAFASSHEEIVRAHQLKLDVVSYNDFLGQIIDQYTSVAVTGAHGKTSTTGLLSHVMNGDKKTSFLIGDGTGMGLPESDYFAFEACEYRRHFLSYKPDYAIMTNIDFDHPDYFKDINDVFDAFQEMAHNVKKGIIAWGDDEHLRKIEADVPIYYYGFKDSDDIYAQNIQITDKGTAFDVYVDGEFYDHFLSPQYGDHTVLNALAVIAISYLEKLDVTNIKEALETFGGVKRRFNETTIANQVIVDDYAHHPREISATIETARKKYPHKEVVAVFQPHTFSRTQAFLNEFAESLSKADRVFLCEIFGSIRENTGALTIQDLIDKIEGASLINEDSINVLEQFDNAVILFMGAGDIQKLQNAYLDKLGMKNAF
The test can be described thus: biochemical. To be noted: (S) S. aureus enzyme; for IC50: read-out: MurC IC50 (converted). The essentials: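 MurC assay: enzyme (E. coli 100 μg/mL, S. aureus 70 μg/mL stock) with L-Ala and test compound, pre-incubated 10 min at 23 °C, then UDP-MurNac added, 10 min at 37 °C. Phosphate released detected by malachite green–molybdate at 660 nm; IC50 by linear regression.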

Test [2] concerns the target T2, S. aureus Uridine-diphosphate-N-acetylmuramoyl-L-alanine: D-glutamate liease, MurD (Staphylococcus aureus, UniProt Q2FZ92).
T2 sequence (Q2FZ92 1-449): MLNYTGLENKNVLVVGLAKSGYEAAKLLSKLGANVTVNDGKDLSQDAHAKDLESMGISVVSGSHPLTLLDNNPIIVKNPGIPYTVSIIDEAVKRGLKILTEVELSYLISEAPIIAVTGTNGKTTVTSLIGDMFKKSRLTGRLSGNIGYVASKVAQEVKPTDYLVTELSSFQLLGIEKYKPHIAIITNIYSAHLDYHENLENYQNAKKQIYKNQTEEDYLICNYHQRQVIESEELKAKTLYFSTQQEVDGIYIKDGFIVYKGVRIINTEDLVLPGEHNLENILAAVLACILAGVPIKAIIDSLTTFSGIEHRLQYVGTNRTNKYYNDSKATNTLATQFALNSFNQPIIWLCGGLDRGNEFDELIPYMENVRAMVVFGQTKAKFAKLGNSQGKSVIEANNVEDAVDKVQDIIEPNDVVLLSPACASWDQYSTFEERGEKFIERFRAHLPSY
The test can be described thus: biochemical. Conditions: (S) S. aureus enzyme. The essentials: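 Test solutions, 10 mg/mL stocks in DMSO, were brought to 100 μg/mL with 50 mM Tris/HCl (pH 8.5). Their inhibition of MurD, the enzyme of the fourth cell wall biosynthesis step, was measured.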

Another test concerns enterococci. The test can be described thus: Minimum inhibitory concentration, microdilution broth method, enterococci. Type of test: cell-based. To be noted: Mueller-Hinton broth, 18-22 hours at 35° C.; for MIC: Enterococcus faecalis. A digest of the protocol:
(§1)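 Strep: Mueller-Hinton + 5% horse blood (LHB). Enterococci, staph: Mueller-Hinton broth alone. Microdilution format per NCCLS M7-A5 2000; isolates include resistant clinical strains.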

Another test deals with Streptococci. The test can be described thus: Minimum inhibitory concentration, microdilution broth method, streptococci. To be noted: Mueller-Hinton broth with 5% horse blood, 18-22 hours at 35° C.; for MIC: S. pneumo GC 1894. The class given is cell-based. A digest of the protocol:
as §1

[3] abbreviates: E. faecalis GC 2242, read-out: MIC E. faecalis GC 2242.
Where [4] appears, read: E. faecalis GC 4555, read-out: MIC E. faecalis GC 4555.

pIC50: −log10 of the molar value. Converted amounts (≈) assume the structure as drawn. Where two headings read alike, the source gives them in different places.

A word on the IC50: it is the concentration needed to halve the response being measured. In general, pIC50 refers to the negative decadic logarithm of the IC50, by convention in mol/L. Low values mean a large IC50, high ones a small IC50. As a reminder, the MIC is the lowest concentration that inhibits growth of the organism.

As to `O=C1O/C(=C\c2cccc(-c3cc(Cl)cc(Cl)c3)c2)C(O)=C1c1cc(Cl)cc(Cl)c1` [Example 136], the IC50 in test [1] is over 52.3 µM. This compound also showed a pIC50 in test [2] of 4.68. In addition, the MIC in the test with enterococci (setting [3]) was 0.5 µg/mL (≈ 1.05 µM); in the test on enterococci (setting [4]) it was 1 µg/mL (≈ 2.09 µM); in the test on Streptococci, 0.25 µg/mL (≈ 0.523 µM).
Taken in the same sequence, the figures for `O=C1O/C(=C\c2ccccc2-c2ccc(Cl)cc2)C(O)=C1c1ccc(Cl)cc1` [Example 137] were 56.2 µM, 4.36, 4 µg/mL (≈ 9.77 µM), 4 µg/mL (≈ 9.77 µM) and 2 µg/mL (≈ 4.89 µM).
For the compound `O=C1O/C(=C\c2ccc(Cl)cc2)C(O)=C1c1ccc(-c2ccccc2)c(F)c1` [Example 138], the IC50 in test [1] was 20.4 µM. Further, in test [2], the pIC50 was 4.45. Further, the MIC in the test on enterococci (setting [3]) stood at 4 µg/mL (≈ 10.2 µM); in the test on enterococci (setting [4]), 8 µg/mL (≈ 20.4 µM); against Streptococci, 0.5 µg/mL (≈ 1.27 µM).
The like results for `O=C1O/C(=C\c2ccccc2-c2cccc(Cl)c2)C(O)=C1c1cccc(Cl)c1` [Example 140] were, in that order, 19.5 µM, 4.31, 4 µg/mL (≈ 9.77 µM), 4 µg/mL (≈ 9.77 µM) and 1 µg/mL (≈ 2.44 µM).
Regarding `O=C1O/C(=C\c2ccccc2-c2ccc(Cl)c(Cl)c2)C(O)=C1c1ccc(Cl)c(Cl)c1` [Example 141], the IC50 in test [1] is over 52.3 µM. Besides, the pIC50 in test [2] is 5.20. In addition, the MIC in the test on enterococci (setting [3]) is 0.5 µg/mL (≈ 1.05 µM); in the test on enterococci (setting [4]), 1 µg/mL (≈ 2.09 µM); with Streptococci, under 0.125 µg/mL.
With `O=C1O/C(=C\c2cc(C(F)(F)F)ccc2Cl)C(O)=C1c1ccc(N2CCOCC2)c(F)c1` [Example 142], the “MurC IC50” value in test [1] was >25 (S) μg/mL. Besides, the “MurD IC50” value in test [2] is reported as >25 (S) μg/mL. The “MIC E. faecalis GC 2242” value in the test with enterococci (E. faecalis GC 2242) is over 128 µg/mL. Further, in the test on enterococci (E. faecalis GC 4555), the “MIC E. faecalis GC 4555” value was over 128 µg/mL. Moreover, the “MIC S. pneumo GC 1894” value against Streptococci turned out to be 8 µg/mL (≈ 17 µM).
As for `O=C1O/C(=C\c2ccc(-c3ccccc3)cc2)C(O)=C1c1csc2ccccc12` [Example 143], the IC50 in test [1] was 12.6 µM. In addition, the pIC50 in test [2] was 4.60. Also, the MIC with enterococci (setting [3]) was found to be 4 µg/mL (≈ 10.1 µM); in the test with enterococci (setting [4]), 32 µg/mL (≈ 80.7 µM); in the test with Streptococci it was 1 µg/mL (≈ 2.52 µM).
For the compound `O=C1O/C(=C\c2ccc(-c3ccccc3)cc2)C(O)=C1c1cccs1` [Example 144], the IC50 in test [1] was 28.9 µM. The pIC50 in test [2] was 4.24. In addition, the MIC was 32 µg/mL (≈ 92.4 µM) in the test with enterococci (setting [3]), over 128 µg/mL in the test on enterococci (setting [4]) and 2 µg/mL (≈ 5.77 µM) against Streptococci.
For `O=C1O/C(=C\c2ccc(C(F)(F)F)cc2)C(O)=C1c1ccc(-c2ccccc2)cc1` [R=H, R1=4-(biphenyl), R2=4-CF3—C6H4], the IC50 in test [1] was 29.4 µM. In test [2], this compound had a pIC50 of under 4.21. In addition, the MIC in the test with enterococci (setting [3]) is 2 µg/mL (≈ 4.9 µM); in the test with enterococci (setting [4]), 8 µg/mL (≈ 19.6 µM); in the test on Streptococci, under 0.125 µg/mL.
`O=C1O/C(=C\c2cccc3ccccc23)C(O)=C1c1ccc(-c2ccccc2)cc1` [R=H, R1=4-biphenyl, R2=1-naphthyl]: the IC50 in test [1] is 48.7 µM. In test [2], this compound showed a pIC50 of 4.42. For the same compound, the MIC in the test on enterococci (setting [3]) came to 4 µg/mL (≈ 10.2 µM); in the test with enterococci (setting [4]) it was 16 µg/mL (≈ 41 µM); against Streptococci, 1 µg/mL (≈ 2.56 µM).

Source of the values: patent publication US7495027B2, “3-aryl-4-hydroxyfuranone compounds and the human and animal health use thereof” (Wyeth, priority 2003, dated 2009).
